The record followed here is ChEMBL document CHEMBL4834430, “Design and Structure-Activity Relationships of Isothiocyanates as Potent and Selective N-Acylethanolamine-Hydrolyzing Acid Amidase Inhibitors” (J Med Chem, 2021).

Series [1] deals with T1, N-acylethanolamine-hydrolyzing acid amidase (Homo sapiens, UniProt Q02083).
T1 sequence (Q02083 whole entry): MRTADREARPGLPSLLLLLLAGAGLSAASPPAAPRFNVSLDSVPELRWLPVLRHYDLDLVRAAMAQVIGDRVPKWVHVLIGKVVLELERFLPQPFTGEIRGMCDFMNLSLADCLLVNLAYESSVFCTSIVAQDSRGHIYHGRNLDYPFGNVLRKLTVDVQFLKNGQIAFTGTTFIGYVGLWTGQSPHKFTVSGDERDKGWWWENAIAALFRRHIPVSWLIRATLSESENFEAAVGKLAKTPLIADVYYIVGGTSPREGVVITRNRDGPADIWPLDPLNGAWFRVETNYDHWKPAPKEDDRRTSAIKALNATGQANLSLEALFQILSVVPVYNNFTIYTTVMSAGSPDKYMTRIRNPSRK
The experiment in a line: Inhibition of human NAAA using N-(4-methyl coumarin)-palmitamide as fluorogenic substrate preincubated for 90 mins followed by substrate addition by fluorescence assay.

The target of series [2] is T2, Cathepsin K (Homo sapiens) (UniProt P43235).
T2 sequence (whole entry): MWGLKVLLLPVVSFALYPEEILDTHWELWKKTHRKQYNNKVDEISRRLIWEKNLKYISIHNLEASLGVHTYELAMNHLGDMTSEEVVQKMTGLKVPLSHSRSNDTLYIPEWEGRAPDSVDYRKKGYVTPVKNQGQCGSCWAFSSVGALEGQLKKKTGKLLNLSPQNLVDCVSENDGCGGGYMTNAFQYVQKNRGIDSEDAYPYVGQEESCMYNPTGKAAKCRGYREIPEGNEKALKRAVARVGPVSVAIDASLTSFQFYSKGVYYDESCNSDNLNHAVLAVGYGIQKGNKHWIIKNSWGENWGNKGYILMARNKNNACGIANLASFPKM
The experiment in a line: Inhibition of recombinant human Cathepsin K at 100 nM using Z-Phe-Arg-AMC as fluorogenic substrate preincubated for 120 mins followed by substrate addition by fluorescence assay relative to control.

The target of series [3] is T3, N-acylethanolamine-hydrolyzing acid amidase (Homo sapiens) (UniProt Q02083).
T3 sequence (whole entry): T1 sequence (Q02083 whole entry)
The experiment in a line: Inhibition of human NAAA at 1 uM using N-(4-methyl coumarin)-palmitamide as fluorogenic substrate preincubated for 90 mins followed by substrate addition by fluorescence assay relative to control.

The target in series [4] is T4, Cathepsin K (Homo sapiens, UniProt P43235).
T4 sequence (P43235 whole entry): T2 sequence (whole entry)
The experiment in a line: Inhibition of recombinant human Cathepsin K using Z-Phe-Arg-AMC as fluorogenic substrate preincubated for 120 mins followed by substrate addition by fluorescence assay.

A short description of series [5]: Half life in human liver microsomes at 1 uM in presence of NADPH by LC-MS/MS analysis. It counts as ADME, Microsome. For orientation: Liver microsomes are vesicles of endoplasmic reticulum, rich in cytochrome P450 enzymes.
A short description of series [6]: Half life in rat liver microsomes at 1 uM in presence of NADPH by LC-MS/MS analysis. It counts as ADME, Microsome.
Series [7] can be described thus: Half life in mouse liver microsomes at 1 uM in presence of NADPH by LC-MS/MS analysis. It counts as ADME, Microsome.
Series [8] in a line: Drug concentration in brain of CD-1 mouse at 2 mg/kg, iv administered as single cassette dose measured after 15 mins. The series is classed as ADME, organism-based. As to conditions: read-out: Ct.
For series [9], the target named is T2, Cathepsin K (Homo sapiens). The experiment in a line: Inhibition of recombinant human Cathepsin K at 1 uM using Z-Phe-Arg-AMC as fluorogenic substrate preincubated for 120 mins followed by substrate addition by fluorescence assay.
Series [10] can be described thus: Drug concentration in plasma of CD-1 mouse at 2 mg/kg, iv administered as single cassette dose measured after 15 mins. The series is classed as ADME, organism-based.
Series [11] can be described thus: Drug concentration in plasma of CD-1 mouse at 8 mg/kg, po administered as single cassette dose measured after 30 mins. The series is classed as ADME, organism-based.
Series [12] can be described thus: Drug concentration in plasma of CD-1 mouse at 8 mg/kg, po administered as single cassette dose measured after 60 mins. It counts as ADME, organism-based.
For series [13], the target named is T1, N-acylethanolamine-hydrolyzing acid amidase. The experiment in a line: Inhibition of NAAA (unknown origin).
A short description of series [14]: Drug metabolism in rat liver microsomes assessed as (1s,3s)-3-(2-fluoro-4-(2-methoxypyridin-3-yl)benzyloxy)cyclobutanamine formation at 1 uM in presence of NADPH by LC-MS/MS analysis. It counts as ADME, Microsome.
Series [15] in a line: Drug metabolism in rat liver microsomes assessed as (2-fluoro-4-(2-methoxypyridin-3-yl)phenyl)methanol formation at 1 uM in presence of NADPH by LC-MS/MS analysis. The series is classed as ADME, Microsome.
Series [16] can be described thus: Drug metabolism in rat liver microsomes assessed as (R)-2-amino-3-((1s,3S)-3-(2-fluoro-4-(2-methoxypyridin-3-yl)benzyloxy)cyclobutylcarbamothioylthio)propanoic acid formation at 1 uM in absence of NADPH by LC-MS/MS analysis. It counts as ADME, Microsome.
A short description of series [17]: Drug metabolism in rat liver microsomes assessed as […] (R)-2-amino-3-((1s,3S)-3-(2-fluoro-4-(2-methoxypyridin-3-yl)benzyloxy)cyclobutylcarbamoylthio)propanoic acid formation at 1 uM in absence of NADPH by LC-MS/MS analysis. It counts as ADME.
Series [18] concerns the target T3, N-acylethanolamine-hydrolyzing acid amidase (Homo sapiens). The series can be described thus: Covalent inhibition of human NAAA assessed as ratio of Kinact/Ki.

pIC50: −log10 of the molar value. The source made the active and inactive calls. The rule behind the calls is not given here.

Turning to `S=C=N[C@H]1C[C@@H](OCc2ccc(-c3ccc4occc4c3)cn2)C1`, the pIC50 (usually the IC50 on a negative log10 scale, so that one unit is a factor of ten) in series [1] is 8.08. Moreover, the inhibition (usually the change of the read-out against control, counted positive when it falls) in series [2] is 55.8%.
`COc1ccc(-c2ccc(CO[C@H]3CCC[C@@H](N=C=S)C3)cc2)cc1F` had an inhibition in series [3] of 35%.
Take `Fc1cc(-c2ccc3c(c2)CCO3)ccc1CO[C@H]1C[C@@H](N=C=S)C1`: the pIC50 in series [1] was 8.35; in [4], 7.08.
Take `COc1cnc(-c2ccc(CO[C@H]3C[C@@H](N=C=S)C3)cn2)cc1F`: the pIC50 in series [1] is 7.82. The inhibition in series [2] was determined as 56.8%. Further, the half-life (in general, how long it takes for the measured level to halve) at 1 µM in series [5] turned out to be 11.8 min; in [6], 10.2 min; in series [7], 5.1 min.
As for `CS(=O)(=O)c1ccc(-c2ccc(C(=O)N[C@H]3C[C@@H](N=C=S)C3)nc2)cc1`, the inhibition in series [3] turned out to be 41%.
In the case of `COc1ccc(-c2ccc(S(=O)(=O)N[C@H]3C[C@@H](N=C=S)C3)nc2)cc1`, the results for the concentration at 0.25 h in [8] and in series [10] were 1150 ng/g and 126 ng/mL, respectively. The compound also had a pIC50 in series [1] of 8.20. Besides, the inhibition entry in series [9] was “inactive”. In series [11], this compound had a concentration at 0.5 h of 3 ng/mL. In series [12], this compound came in with a concentration at 1 h of 2 ng/mL.
Turning to `COc1ccc(-c2ccc(C(=O)N[C@H]3C[C@@H](N=C=S)C3)nc2)cc1F`, the figures for the concentration at 0.25 h in series [8] and in series [10] were 690 ng/g and 264 ng/mL, respectively. In series [1], this compound had a pIC50 of 7.58. In addition, the inhibition result in [9] is “inactive”. Moreover, the half-life at 1 µM came out at 13 min in series [5], 8.6 min in [6] and 14 min in [7]. The compound also gave a concentration at 0.5 h in series [11] of 11 ng/mL. For the same compound, the concentration at 1 h in series [12] is 8 ng/mL.
With `COc1ccc(-c2ncc(C(=O)N[C@H]3C[C@@H](N=C=S)C3)o2)cc1`, the inhibition in [3] was 51%.
`O=C(CCCCCc1cccc(Cl)c1)N1CCOC1=O` showed a pIC50 in series [13] of 8.05.
In [1], `COc1ncccc1-c1ccc(CO[C@H]2C[C@@H](N=C=S)C2)c(F)c1` had a pIC50 of 6.52. Further, the half-life at 1 µM came out at 15.3 min in series [5], 14.5 min in [6] and 6.8 min in series [7]. Also, the Drug metabolism entry in [14], in [15], in series [16] and in series [17] was “Metabolite_Detected” each time.
The compound `COc1ccc(-c2ccc(CO[C@H]3C[C@@H](N=C=S)C3)c(F)c2)cc1F` showed a pIC50 in series [1] of 7.69. Also, the Ratio in [18] was 2.85 10^6/M/s. Further, the inhibition in series [2] amounted to 56.5%.
On to `Fc1cc(-c2ccc(OC(F)(F)F)c(F)c2)ccc1CO[C@H]1C[C@@H](N=C=S)C1`, for which the figures for the concentration at 0.25 h in [8] and in series [10] were 8 ng/g and 178 ng/mL, respectively. Also, the pIC50 in series [1] was 7.01; in series [4], 7.23. The half-life at 1 µM in series [5] is 10.9 min; in [6], 9.1 min; in series [7], 2.9 min. Moreover, the concentration at 0.5 h in series [11] is 12 ng/mL. Moreover, in series [12], the concentration at 1 h worked out at 7 ng/mL.
In series [1], `COc1cnc(-c2cnc(CO[C@H]3C[C@@H](N=C=S)C3)c(F)c2)cc1F` showed a pIC50 of 7.71. Moreover, in series [2], the inhibition is 43.7%. The half-life at 1 µM turned out to be 7.1 min in series [5], 7.4 min in [6] and 6.3 min in series [7].
